These results are taken from patent US7504420B2, “Compounds which inhibit beta-secretase activity and methods of use” (CoMentis, Inc., priority 2005, dated 2009).

One test deals with memapsin 2 (Homo sapiens, UniProt P56817). The experiment in a line: Inhibition of memapsin 2 catalytic activity (Ki). It is filed as biochemical. As to conditions: memapsin 2, pH 4, 37° C.; read-out: M2K. The gist of the method: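 Run at 37 °C and pH 4: compound and enzyme pre-incubated 20 min before FS-2 fluorogenic substrate started hydrolysis,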
The next test has as its target cathepsin D (Homo sapiens, UniProt P07339). Put plainly: Inhibition of cathepsin D catalytic activity (Ki). The format is biochemical. Particulars: pH 4.0, 37° C., read-out: CDK.
For test [1], the system named is Aβ production in Chinese hamster ovary cells that over-express human APP695 with the London and Swedish mutations. The experiment in a line: Cellular Aβ IC50 determination (Aβ40 sandwich ELISA). As to conditions: Cricetulus griseus, CHO, 24 h, read-out: Cell, Aβ40, CHO cells over-expressing human APP695 (London and Swedish mutations), 24 h. A general note: ELISA stands for enzyme-linked immunosorbent assay.

Another test concerns the target T1, memapsin 1 (Homo sapiens, UniProt Q9Y5Z0).
T1 sequence (Q9Y5Z0 63-518): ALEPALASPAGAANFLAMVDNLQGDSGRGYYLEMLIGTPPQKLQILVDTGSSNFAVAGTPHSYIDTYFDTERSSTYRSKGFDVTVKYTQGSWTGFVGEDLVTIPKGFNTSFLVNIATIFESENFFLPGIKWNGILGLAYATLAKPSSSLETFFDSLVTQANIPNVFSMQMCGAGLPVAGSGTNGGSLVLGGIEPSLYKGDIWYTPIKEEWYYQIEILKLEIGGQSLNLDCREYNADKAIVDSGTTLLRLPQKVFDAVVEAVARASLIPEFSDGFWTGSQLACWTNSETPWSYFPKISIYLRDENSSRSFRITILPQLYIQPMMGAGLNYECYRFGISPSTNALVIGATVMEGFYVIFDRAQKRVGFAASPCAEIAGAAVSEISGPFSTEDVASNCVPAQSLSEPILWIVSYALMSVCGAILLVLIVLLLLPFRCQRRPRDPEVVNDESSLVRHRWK
Put plainly: Inhibition of memapsin 1 catalytic activity (Ki). The format is biochemical. As to conditions: memapsin 1, pH 4.0, 37° C.; read-out: M1K. Here is the method:
A substrate peptide NH3-ELDLAVEFWHDR-CO2 (SEQ ID NO.:1) (used for inhibition assay of memapsin 2, memapsin 1, and cathepsin D) was dissolved at 2 mg/ml in DMSO and diluted 1:100 in 0.1 M sodium acetate, pH 4.0 just prior to assay. Inhibitor dissolved in DMSO was diluted into 0.1 M sodium acetate, pH 4.0 (1:100 dilution). A […] aliquot of the inhibitor solution in pH 4 buffer was combined with […] of 0.1 M sodium acetate containing 100-200 nM of memapsin 1, memapsin 2, or cathepsin D. Following a pre-incubation at 37° C., the proteolytic assay was initated by addition of […] of the substrate diluted into pH 4 buffer, and incubation continued at 37° C. Aliquots were removed at time intervals, and combined with an equal volume of MALDI-TOF matrix (α-hydroxycinnamic acid in acetone, 20 mg/ml) and immediately spotted in duplicate onto a stainless-steel MALDI sample plate. MALDI-TOF mass spectrometry was performed on a PE Biosystems Voyager DE instrument at the Molecular Biology Resource Center on campus. The instrument was operated at 25,000 accelerating volts in positive mode with a 150 ns delay. Ions with a mass-to-charge ratio (m/z) were detected in the range of 650-2000 atomic mass units. Data were analyzed by the Voyager Data Explorer module to obtain ion intensity data for mass species of substrates and corresponding products in a given mixture. Relative product formation was calculated as the ratio of signal intensity of the product to the sum of signal intensities of both product and the corresponding substrate. Relative product formed per unit time was obtained from non-linear regression analysis of the data representing the initial 15% formation of product using the model: 1−e^−kT, where k was the relative hydrolytic rate constant and T was time in seconds. Alternatively, relative hydrolytic rates were determined using a fluorogenic cleavage assay (Ermolieff, J. et al., Biochemistry, 39: 12450-12456 (2000)). Initial rates from either method were expressed relative to uninhibited controls and the inhibition constant Ki was determined by a non-linear fit to a tight-binding model of competitive inhibition (Bieth, J., Bayer-Symposium V: Proteinase Inhibitors, pp 463-469, Spinger-Varlag, Berlin (1994)). Results are shown in Table 1 above (M2K, CDK, and M1K columns represent, respectively, the K1 values obtained for memapsin 2, cathepsin D and memapsin 1).

Sequence of cathepsin D (P07339 65-412, species assumed): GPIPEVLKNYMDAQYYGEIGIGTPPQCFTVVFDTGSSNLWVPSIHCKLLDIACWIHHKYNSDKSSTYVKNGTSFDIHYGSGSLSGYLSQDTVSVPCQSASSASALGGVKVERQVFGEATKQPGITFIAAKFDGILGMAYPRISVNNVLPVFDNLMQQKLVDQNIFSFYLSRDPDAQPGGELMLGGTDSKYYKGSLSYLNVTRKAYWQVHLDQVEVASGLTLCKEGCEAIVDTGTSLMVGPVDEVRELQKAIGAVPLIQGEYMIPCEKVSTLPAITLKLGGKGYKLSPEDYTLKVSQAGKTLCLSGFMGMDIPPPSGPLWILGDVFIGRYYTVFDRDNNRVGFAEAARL
Sequence of memapsin 2 (P56817 46-501): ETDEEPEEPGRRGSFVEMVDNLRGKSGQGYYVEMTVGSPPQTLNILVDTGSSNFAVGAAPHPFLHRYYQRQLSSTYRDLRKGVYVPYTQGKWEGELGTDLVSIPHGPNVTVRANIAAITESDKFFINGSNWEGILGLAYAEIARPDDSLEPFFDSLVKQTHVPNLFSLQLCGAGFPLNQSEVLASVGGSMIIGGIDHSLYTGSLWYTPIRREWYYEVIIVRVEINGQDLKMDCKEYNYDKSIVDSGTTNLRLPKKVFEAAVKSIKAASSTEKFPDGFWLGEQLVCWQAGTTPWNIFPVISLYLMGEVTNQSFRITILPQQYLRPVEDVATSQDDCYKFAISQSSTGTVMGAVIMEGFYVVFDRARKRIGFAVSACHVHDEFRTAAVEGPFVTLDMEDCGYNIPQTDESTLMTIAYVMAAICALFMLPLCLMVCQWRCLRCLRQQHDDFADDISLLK

Take `CCN(c1cc(C(=O)NC(C)c2ccccc2)cc(C(=O)NC(Cc2ccccc2)C(O)CNCc2cccc(OC)c2)c1)S(C)(=O)=O` (stereo not shown) [5-(N-ethylmethylsulfonamido)-N1-(3-hydroxy-4-(3-methoxybenzylamino)-1-phenylbutan-2-yl)-N3-(1-phenylethyl)isophthalamide]: the Ki is 301 to 500 nM at memapsin 2, less than 300 nM at cathepsin D and less than 300 nM on memapsin 1. The IC50 in test [1] is less than 1000 nM.

For the compound `CCC(NC(=O)c1cc(C(=O)NC(Cc2ccccc2)C(O)CNCc2cccc(OC)c2)cc(N(C)S(C)(=O)=O)c1)c1ccccc1` (stereo not shown) [N1-(3-hydroxy-4-(3-methoxybenzylamino)-1-phenylbutan-2-yl)-5-(N-methylmethylsulfonamido)-N3-(1-phenylpropyl)isophthalamide], the Ki on memapsin 2, at cathepsin D and at memapsin 1 was less than 300 nM each time. Also, the IC50 in test [1] is less than 1000 nM.

`COc1cccc(CNCC(O)C(Cc2ccccc2)NC(=O)c2cc(C(=O)NC(C)c3cccnc3)cc(N(C)S(C)(=O)=O)c2)c1` (stereo not shown) [N1-(3-hydroxy-4-(3-methoxybenzylamino)-1-phenylbutan-2-yl)-5-(N-methylmethylsulfonamido)-N3-(1-(pyridin-3-yl)ethyl)isophthalamide]: the Ki is less than 300 nM on memapsin 2, more than 501 nM on cathepsin D and more than 501 nM on memapsin 1. Besides, the IC50 in test [1] is less than 1000 nM.

In the case of `Cc1cccc(CNCC(O)C(Cc2ccccc2)NC(=O)c2cc(C(=O)NC(C)c3ccccc3)cc(N(C)S(C)(=O)=O)c2)n1` (stereo not shown) [N1-(3-hydroxy-4-((6-methylpyridin-2-yl)methylamino)-1-phenylbutan-2-yl)-5-(N-methylmethylsulfonamido)-N3-(1-phenylethyl)isophthalamide], the Ki on memapsin 2 was 301 to 500 nM; at cathepsin D, more than 501 nM; at memapsin 1, 301 to 500 nM. Besides, the IC50 in test [1] was less than 1000 nM.

On to `COc1cccc(CNCC(O)C(Cc2ccccc2)NC(=O)c2cc(C(=O)NC(C)c3ccccc3)cc([N+](=O)[O-])c2)c1` (stereo not shown) [N1-(3-hydroxy-4-(3-methoxybenzylamino)-1-phenylbutan-2-yl)-5-nitro-N3-(1-phenylethyl)isophthalamide], for which the figures for the Ki on memapsin 2, at cathepsin D and on memapsin 1 were 301 to 500 nM, less than 300 nM and less than 300 nM, respectively. The IC50 in test [1] is less than 1000 nM.

On to `COc1ccccc1CNCC(O)C(Cc1ccccc1)NC(=O)c1cc(C(=O)NC(C)c2ccccc2)cc(N(C)S(C)(=O)=O)c1` (stereo not shown) [N1-(3-hydroxy-4-(2-methoxybenzylamino)-1-phenylbutan-2-yl)-5-(N-methylmethylsulfonamido)-N3-(1-phenylethyl)isophthalamide], for which the Ki at memapsin 2 is less than 300 nM; at cathepsin D, less than 300 nM; at memapsin 1, 301 to 500 nM. The IC50 in test [1] is less than 1000 nM.

Take `CC(=O)Nc1cccc(CNCC(O)C(Cc2ccccc2)NC(=O)c2cc(C(=O)NC(C)c3ccccc3)cc(N(C)S(C)(=O)=O)c2)c1` (stereo not shown) [N1-(4-(3-acetamidobenzylamino)-3-hydroxy-1-phenylbutan-2-yl)-5-(N-methylmethylsulfonamido)-N3-(1-phenylethyl)isophthalamide]: the Ki on memapsin 2 was less than 300 nM; on cathepsin D, 301 to 500 nM; on memapsin 1 it was less than 300 nM. Moreover, in test [1], the IC50 is less than 1000 nM.

For the compound `CC(NCC(O)C(Cc1ccccc1)NC(=O)c1cc(C(=O)NC(C)c2ccccc2)cc(N(C)S(C)(=O)=O)c1)c1ccc(F)cc1` (stereo not shown) [N1-(4-(1-(4-fluorophenyl)ethylamino)-3-hydroxy-1-phenylbutan-2-yl)-5-(N-methylmethylsulfonamido)-N3-(1-phenylethyl)isophthalamide], the Ki on memapsin 2, at cathepsin D and on memapsin 1 was less than 300 nM throughout. In addition, the IC50 in test [1] was less than 1000 nM.

For `Cc1csc(CN(C)C(=O)c2cccc(C(=O)NC(Cc3ccccc3)C(O)CNC(C)c3ccccc3)c2)n1` (stereo not shown) [N1-(3-hydroxy-1-phenyl-4-(1-phenylethylamino)butan-2-yl)-N3-methyl-N3-((4-methylthiazol-2-yl)methyl)isophthalamide], the figures for the Ki at memapsin 2, at cathepsin D and at memapsin 1 were more than 501 nM, more than 501 nM and less than 300 nM, respectively. Moreover, the IC50 in test [1] lay in the range of 1000 to 5000 nM.

For `COc1cccc(CNCC(O)C(Cc2ccccc2)NC(=O)c2cc(C(=O)NCc3nc(C)oc3C)cc(N(C)S(C)(=O)=O)c2)c1` (stereo not shown) [N1-((2,5-dimethyloxazol-4-yl)methyl)-N3-(3-hydroxy-4-(3-methoxybenzylamino)-1-phenylbutan-2-yl)-5-(N-methylmethylsulfonamido)isophthalamide], the Ki at memapsin 2, at cathepsin D and at memapsin 1 was more than 501 nM in each case. Besides, the IC50 in test [1] lay in the range of 1000 to 5000 nM.

For the compound `Cc1cccc(CNCC(O)C(Cc2ccccc2)NC(=O)c2cc(C(=O)NC(C)c3ccccc3)cc(N(C)S(C)(=O)=O)c2)c1` (stereo not shown) [N1-(3-hydroxy-4-(3-methylbenzylamino)-1-phenylbutan-2-yl)-5-(N-methylmethylsulfonamido)-N3-(1-phenylethyl)isophthalamide], the Ki at memapsin 2 was less than 300 nM; on cathepsin D, less than 300 nM; at memapsin 1 it was 301 to 500 nM. For the same compound, in test [1], the IC50 is less than 1000 nM.

Regarding `COc1cccc(C(C)NCC(O)C(Cc2ccccc2)NC(=O)c2cc(C(=O)NC(C)c3ccccc3)cc(N(C)S(C)(=O)=O)c2)c1` (stereo not shown) [N1-(3-hydroxy-4-(1-(3-methoxyphenyl)ethylamino)-1-phenylbutan-2-yl)-5-(N-methylmethylsulfonamido)-N3-(1-phenylethyl)isophthalamide], the Ki at memapsin 2, at cathepsin D and on memapsin 1 was less than 300 nM each time. Moreover, the IC50 in test [1] is less than 1000 nM.

Regarding `Cc1csc(CNCC(O)C(Cc2ccccc2)NC(=O)c2cc(C(=O)NC(C)c3ccccc3)cc(N(C)S(C)(=O)=O)c2)n1` (stereo not shown) [N1-(3-hydroxy-4-((4-methylthiazol-2-yl)methylamino)-1-phenylbutan-2-yl)-5-(N-methylmethylsulfonamido)-N3-(1-phenylethyl)isophthalamide], the Ki at memapsin 2 is less than 300 nM; at cathepsin D, 301 to 500 nM; at memapsin 1, more than 501 nM. Moreover, in test [1], the IC50 was less than 1000 nM.

For `COc1cccc(CNCC(O)C(Cc2ccccc2)NC(=O)c2cc(C(=O)NCC3COC4OCCC34)cc(N(C)S(C)(=O)=O)c2)c1` (stereo not shown) [N1-((hexahydrofuro[2,3-b]furan-3-yl)methyl)-N3-(3-hydroxy-4-(3-methoxybenzylamino)-1-phenylbutan-2-yl)-5-(N-methylmethylsulfonamido)isophthalamide], the Ki on memapsin 2 is 301 to 500 nM; at cathepsin D, 301 to 500 nM; at memapsin 1, more than 501 nM. In test [1], the IC50 was more than 5000 nM.

Take `Cc1csc(CN(C(=O)c2cccc(C(=O)NC(Cc3ccccc3)C(O)CNCc3cncc(C(C)C)c3)c2)C2CC2)n1` (stereo not shown) [N1-cyclopropyl-N3-(3-hydroxy-4-((5-isopropylpyridin-3-yl)methylamino)-1-phenylbutan-2-yl)-N1-((4-methylthiazol-2-yl)methyl)isophthalamide]: the Ki at memapsin 2, at cathepsin D and on memapsin 1 was less than 300 nM each time. The IC50 in test [1] is less than 1000 nM.

Take `COc1cccc(CNCC(O)C(Cc2ccccc2)NC(=O)c2cccc(C(=O)N(C)Cc3cc(C)no3)c2)c1` (stereo not shown) [N1-(3-hydroxy-4-(3-methoxybenzylamino)-1-phenylbutan-2-yl)-N3-methyl-N3-((3-methylisoxazol-5-yl)methyl)isophthalamide]: the Ki at memapsin 2 was more than 501 nM; at cathepsin D, less than 300 nM; on memapsin 1, more than 501 nM. The IC50 in test [1] was more than 5000 nM.
